According to patent publication US20250339409A1, “USES OF PAN BET INHIBITORS” (VYNE THERAPEUTICS INC., priority 2021, published 2025):
“And” between values parts separate entries of the source, which are not always exact repeats. Identical values can stand only once.

Test system: incisional skin wounds
Test: Incisional skin wound healing model (external and internal scoring, time to complete healing, body weight)
Assay type: in vivo, female Hairless Skh-1 mice
Parameters: key to Mean internal scores, Score presence tissue mass: 0 = no tissue mass, 1 = small, 2 = moderate, 3 = large; key to Global external score per day (mean): sum of the scores of 4 external wound parameters; MBWC D 16 − D 0, individual mouse: unit not given here
Conditions: for Global external score per day (mean) / Mean score swelling per day / Mean score visibility (external) per day: BETi1 at 1%; for Mean score length (mm) per day / Mean score width (mm) per day: skin wound; for Body weight, individual mouse: in g (unit assumed)
Experimental: Incisional wounds (10 mm) are made over the entire thickness of the skin (about 1 mm) on both flanks of nine female Hairless Skh-1 mice divided into 3 groups (n=3) according to body weight on D0. Formulations or hydroalcoholic gel are administered topically once daily starting immediately after the induction of skin wounds on DO until the complete healing of both wounds of each mouse, at the same time in the morning. The effects of treatment on wound healing with the formulation used containing one dose of the novel BETi, the vehicle of this new compound (negative control) and a hydroalcoholic gel preventing wound healing (positive control), is evaluated by the daily scoring of the healing process externally. The scoring is based on the daily measurement of the length and width, swelling of each induced skin wound from DO until complete healing, the determination of the time required for complete healing of each of induced skin wounds, and after complete healing of both wounds of a same mouse, by the scoring of the healing process internally by evaluation of the visibility of the scar, the presence of a tissue mass (collagen+elastin) under the scar and the level of vascularization of the scar.
Mice are weighed 3 times per week from the day of induction of skin wounds (D0) until the complete healing of both wounds of each mouse and before sacrifice. The viability and the well being of mice of each cage is checked and recorded daily.
The scoring takes into account the following 4 parameters: The length of the skin wounds measured with a ruler.
The width of the skin wounds with the following scoring grid: • 0=skin wound completely closed, • 1=skin wound almost completely closed, • 2=skin wound moderately closed, • 3=skin wound wide open.
The swelling of the skin wounds with the following scoring grid: • 0=skin wound no or no longer swollen, • 1=skin wound slightly swollen, • 2=skin wound moderately swollen, • 3=skin wound highly swollen.
The visibility of the skin wounds with the following scoring grid: • 0=skin wound no or no longer visible, • 1=skin wound slightly visible, • 2=skin wound moderately visible, • 3=skin wound highly visible.
The sum of the scores of these 4 parameters gives the Global External Score of Wound Healing (GESWH). The time required for complete healing of each induced skin wound is also determined.
After the complete healing of both skin wounds of each mouse, mice are sacrificed, and the scoring of the healing process internally is performed for each wound and takes into account the following 3 parameters: • visibility of the scar with the following scoring grid: • 0=scar highly visible • 1=scar moderately visible, • 2=scar slightly visible • 3=scar non-visible.
The presence of a tissue mass (collagen+elastin) under the scar with the following scoring grid: • 0=no tissue mass present, • 1=small tissue mass present, • 2=moderate tissue mass present, • 3=large tissue mass present.
The level of vascularization of the scar with the following scoring grid: • 0=important vascularization of the scar, • 1=moderate vascularization of the scar, • 2=low vascularization of the scar, • 3=very little vascularization of the scar.
The sum of the scores of these 3 parameters gives the Global Internal Score of Wound Healing (GISWH). A macroscopic observation of all organs of the abdominal and thoracic cavities is performed on all mice. Any other organ with abnormal shape, size or colour is listed.
The body weight, mean body weight change (MBWC) of mice, the external scores of the length, width, swelling and visibility of skin wounds as well as the Global External Score of Wound Healing (GESWH), the time required for complete healing of skin wounds, and the internal scores of the visibility, the presence of a tissue mass and the vascularization of scars as well as the Global Interna Score of Wound Healing (GISWH) are analyzed at the end of the experimentation. […]

## Cn1cc(-c2cccc(O)c2Oc2ccccc2)c2cc[nH]c2c1=O [BETi1]
D 0
  Global external score per day (mean): 15.00
  Mean score swelling per day: 0.00
  Mean score visibility (external) per day: 3.00
  Mean score length (mm) per day: 10.00 mm
  Mean score width (mm) per day: 2.00 mm
D 1
  Global external score per day (mean): 16.33
  Mean score swelling per day: 1.33
  Mean score visibility (external) per day: 3.00
  Mean score length (mm) per day: 10.00 mm
  Mean score width (mm) per day: 2.00 mm
D 2
  Global external score per day (mean): 17.67
  Mean score swelling per day: 2.00
  Mean score visibility (external) per day: 3.00
  Mean score length (mm) per day: 10.00 mm
  Mean score width (mm) per day: 2.67 mm
D 3
  Global external score per day (mean): 18.17
  Mean score swelling per day: 2.00
  Mean score visibility (external) per day: 3.00
  Mean score length (mm) per day: 10.00 mm
  Mean score width (mm) per day: 2.83 mm
D 4
  Global external score per day (mean): 17.50
  Mean score swelling per day: 2.17
  Mean score visibility (external) per day: 3.00
  Mean score length (mm) per day: 9.33 mm
  Mean score width (mm) per day: 3.00 mm
D 5
  Global external score per day (mean): 15.00
  Mean score swelling per day: 2.17
  Mean score visibility (external) per day: 3.00
  Mean score length (mm) per day: 7.50 mm
  Mean score width (mm) per day: 2.33 mm
D 6
  Global external score per day (mean): 14.17
  Mean score swelling per day: 2.17
  Mean score visibility (external) per day: 3.00
  Mean score length (mm) per day: 6.50 mm
  Mean score width (mm) per day: 2.50 mm
D 7
  Global external score per day (mean): 13.67
  Mean score swelling per day: 2.50
  Mean score visibility (external) per day: 3.00
  Mean score length (mm) per day: 5.67 mm
  Mean score width (mm) per day: 2.50 mm
D 8
  Global external score per day (mean): 13.50
  Mean score swelling per day: 2.33
  Mean score visibility (external) per day: 2.83
  Mean score length (mm) per day: 5.67 mm
  Mean score width (mm) per day: 2.67 mm
D 9
  Global external score per day (mean): 13.33
  Mean score swelling per day: 2.17
  Mean score visibility (external) per day: 2.83
  Mean score length (mm) per day: 5.50 mm
  Mean score width (mm) per day: 2.83 mm
D 10
  Global external score per day (mean): 12.00
  Mean score swelling per day: 2.17
  Mean score visibility (external) per day: 2.83
  Mean score length (mm) per day: 4.83 mm
  Mean score width (mm) per day: 2.17 mm
D 11
  Global external score per day (mean): 10.33
  Mean score swelling per day: 1.83
  Mean score visibility (external) per day: 2.67
  Mean score length (mm) per day: 3.83 mm
  Mean score width (mm) per day: 2.00 mm
D 12
  Global external score per day (mean): 8.00
  Mean score swelling per day: 1.67
  Mean score visibility (external) per day: 2.17
  Mean score length (mm) per day: 2.67 mm
  Mean score width (mm) per day: 1.50 mm
D 13
  Global external score per day (mean): 5.17
  Mean score swelling per day: 1.67
  Mean score visibility (external) per day: 1.17
  Mean score length (mm) per day: 1.50 mm
  Mean score width (mm) per day: 0.83 mm
D 14
  Global external score per day (mean): 4.50
  Mean score swelling per day: 1.67
  Mean score visibility (external) per day: 0.83
  Mean score length (mm) per day: 1.17 mm
  Mean score width (mm) per day: 0.83 mm
D 15
  Global external score per day (mean): 3.00
  Mean score swelling per day: 1.50
  Mean score visibility (external) per day: 0.50
  Mean score length (mm) per day: 0.50 mm
  Mean score width (mm) per day: 0.50 mm
D 16
  Global external score per day (mean): 2.17
  Mean score swelling per day: 1.17
  Mean score visibility (external) per day: 0.33
  Mean score length (mm) per day: 0.33 mm
  Mean score width (mm) per day: 0.33 mm
D 17
  Global external score per day (mean): 0.50
  Mean score swelling per day: 0.50
  Mean score visibility (external) per day: 0.00
  Mean score length (mm) per day: 0.00 mm
  Mean score width (mm) per day: 0.00 mm
After complete healing
  Mean internal scores, Global internal score: 2.00
  Mean internal scores, Score presence tissue mass: 0.50
  Mean internal scores, Score vascularization: 1.33
  Mean internal scores, Score visibility scar: 0.17
Compared to hydroalcoholic gel, beginning at treatment day 5
  global external lesion severity score: statistically significant decrease (improvement) in global external lesion severity score
Incisional lesions
  complete healing earlier compared to hydroalcoholic gel: approximately 5 days
  mean time to heal: 15.5 days
Incisional wounds, once daily topical
  Mean time for complete wound healing, Day for complete healing: 15.50 days
Significantly different on Days 15, 16 and 17 compared to vehicle and hydroalcoholic gel
  swelling at wound edges: rapidly reduced the swelling at wound edges
Throughout the treatment period
  tolerability within the lesion sites and in general: appeared to be well-tolerated
Wound model, D 0
  Mean body weight (gram) per day: 26.61 gram
Wound model, D 0, listed as BETi11.0%
  Body weight, individual mouse: 25.00 and 28.64 and 26.19
Wound model, D 2
  Mean body weight (gram) per day: 25.53 gram
Wound model, D 4
  Mean body weight (gram) per day: 25.70 gram
Wound model, D 7
  Mean body weight (gram) per day: 26.10 gram
Wound model, D 9
  Mean body weight (gram) per day: 26.85 gram
Wound model, D 11
  Mean body weight (gram) per day: 27.01 gram
Wound model, D 13
  Mean body weight (gram) per day: 26.88 gram
Wound model, D 16
  Mean body weight (gram) per day: 27.33 gram
Wound model, D 16, listed as BETi11.0%
  Body weight, individual mouse: 25.10 and 28.47 and 28.43
Wound model, listed as BETi11.0%
  MBWC D 16 − D 0, individual mouse: 0.10 and −0.17 and 2.24
